This note sets out measurements from patent publication US10669269B2, “Substituted N-(1H-indazol-4-yl)imidazo[1,2-a]pyridine-3-carboxamide compounds as type III receptor tyrosine kinase inhibitors” (ARRAY BIOPHARMA INC., priority 2010, dated 2020).

Counter-ions that a name gives are not always drawn.

Assay [1] deals with T1, cFMS (Homo sapiens, UniProt P07333).
T1 construct: THP-1 cells (human acute monocytic leukemia cell line) were serum-starved for 4 hours; endogenous in cells; host or cells: THP-1 cells (human acute monocytic leukemia cell line)
T1 sequence (P07333 20-972): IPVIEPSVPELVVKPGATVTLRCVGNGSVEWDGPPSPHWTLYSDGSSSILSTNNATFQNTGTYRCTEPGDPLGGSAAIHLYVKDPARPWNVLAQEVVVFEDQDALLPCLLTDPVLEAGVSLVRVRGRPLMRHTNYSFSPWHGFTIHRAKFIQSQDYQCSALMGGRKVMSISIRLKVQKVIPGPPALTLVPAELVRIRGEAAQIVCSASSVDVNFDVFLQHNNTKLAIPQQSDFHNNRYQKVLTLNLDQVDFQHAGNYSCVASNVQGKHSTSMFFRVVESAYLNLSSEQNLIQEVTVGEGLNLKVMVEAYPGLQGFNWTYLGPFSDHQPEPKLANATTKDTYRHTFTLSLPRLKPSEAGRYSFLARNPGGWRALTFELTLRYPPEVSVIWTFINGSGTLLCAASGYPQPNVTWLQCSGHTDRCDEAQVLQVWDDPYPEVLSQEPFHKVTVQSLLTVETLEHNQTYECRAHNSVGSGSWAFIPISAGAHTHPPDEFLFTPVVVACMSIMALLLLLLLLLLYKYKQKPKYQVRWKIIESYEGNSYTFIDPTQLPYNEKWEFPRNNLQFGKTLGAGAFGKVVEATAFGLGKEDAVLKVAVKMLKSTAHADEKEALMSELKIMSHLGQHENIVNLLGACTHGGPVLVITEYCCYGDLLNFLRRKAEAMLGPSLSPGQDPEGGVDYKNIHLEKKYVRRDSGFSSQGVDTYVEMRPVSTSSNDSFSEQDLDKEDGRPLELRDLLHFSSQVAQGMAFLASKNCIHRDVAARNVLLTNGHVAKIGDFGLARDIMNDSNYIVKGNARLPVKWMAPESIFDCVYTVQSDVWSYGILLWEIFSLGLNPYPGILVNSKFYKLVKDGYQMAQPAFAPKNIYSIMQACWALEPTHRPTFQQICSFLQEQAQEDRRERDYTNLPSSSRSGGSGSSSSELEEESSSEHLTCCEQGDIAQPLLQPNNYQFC
The assay can be described thus: cFMS Cell-Based Assay (Example C). The following applies: averaged IC50; phospho-cFMS in THP-1 cells stimulated with 250 ng/mL recombinant human MCSF; read-out: cFMS Cell ELISA IC50. The procedure:
The ability of compounds of Formula I to inhibit cFMS activation in cells was determined by the following assay. THP-1 cells (human acute monocytic leukemia cell line) were serum-starved for 4 hours prior to treatment with compounds of Formula I for 1 hour. The concentration of compounds of Formula I was varied over a 9-point, 3-fold dilution series with 5,000 nM typically being the highest dose. Cell culture and treatment were carried out in a humidified 37° C., 5% CO2 incubator. Treated cells were stimulated with 250 ng/mL recombinant human MCSF for 1 minute to induce activation of cFMS. Cells were lysed in a manner which preserves phosphoproteins, and the lysate was analyzed by ELISA (R&D Systems, Human Phospho-M-CSF R DuoSet IC DYC3268), in which total cFMS protein in the lysate is captured and phosphotyrosine residues of cFMS are detected. A standard curve, made using purified phospho-M-CSF R protein, was used to quantify phospho-c-FMS in compound-treated wells. A standard 4-parameter logistic model was fit to the inhibitor dose response curves, with the IC50 being defined as the concentration of inhibitor giving 50 percent of control (POC).

In assay [2] the target is T2, c-KIT (Homo sapiens, UniProt P10721).
T2 construct: M-07e cells (human acute megakaryoblastic leukemia cell line) were serum-starved for 4 hours; endogenous in cells; host or cells: M-07e cells (human acute megakaryoblastic leukemia cell line)
T2 sequence (P10721 26-976): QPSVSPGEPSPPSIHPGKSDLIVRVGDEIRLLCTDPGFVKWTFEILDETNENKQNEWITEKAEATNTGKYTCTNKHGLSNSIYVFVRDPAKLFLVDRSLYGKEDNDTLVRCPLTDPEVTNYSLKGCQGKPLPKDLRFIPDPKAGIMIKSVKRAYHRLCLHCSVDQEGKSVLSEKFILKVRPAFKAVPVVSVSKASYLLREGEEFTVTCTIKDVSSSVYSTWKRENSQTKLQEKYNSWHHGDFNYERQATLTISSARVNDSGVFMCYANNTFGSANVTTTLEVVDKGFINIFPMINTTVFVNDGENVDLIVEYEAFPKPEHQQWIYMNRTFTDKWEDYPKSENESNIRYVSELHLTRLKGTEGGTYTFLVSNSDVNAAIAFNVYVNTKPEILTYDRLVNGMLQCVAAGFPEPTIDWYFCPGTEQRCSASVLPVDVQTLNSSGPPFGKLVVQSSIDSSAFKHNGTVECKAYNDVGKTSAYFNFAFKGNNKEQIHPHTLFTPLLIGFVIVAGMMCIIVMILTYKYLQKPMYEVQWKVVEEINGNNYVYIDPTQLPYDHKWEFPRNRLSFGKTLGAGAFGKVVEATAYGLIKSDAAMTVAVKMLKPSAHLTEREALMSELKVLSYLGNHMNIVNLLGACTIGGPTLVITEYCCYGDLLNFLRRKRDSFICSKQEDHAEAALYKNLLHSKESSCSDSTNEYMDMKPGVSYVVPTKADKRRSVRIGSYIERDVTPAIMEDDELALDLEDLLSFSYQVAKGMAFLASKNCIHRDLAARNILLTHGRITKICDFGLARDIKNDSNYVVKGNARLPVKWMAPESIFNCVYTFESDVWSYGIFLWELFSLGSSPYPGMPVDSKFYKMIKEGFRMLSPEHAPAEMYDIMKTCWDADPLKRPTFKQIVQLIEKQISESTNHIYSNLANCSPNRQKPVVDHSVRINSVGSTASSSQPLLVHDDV
Kind of assay: c-KIT Cell-Based Assay (Example D). The following applies: averaged IC50; phospho-c-KIT in M-07e cells stimulated with 150 ng/ml recombinant human SCF; read-out: cKIT Cell ELISA IC50. The method, then:
The ability of compounds of Formula I to inhibit c-KIT activation in cells was determined by the following assay. M-07e cells (human acute megakaryoblastic leukemia cell line) were serum-starved for 4 hours prior to treatment with compounds of Formula I for 1 hour. The concentration of compounds of Formula I was varied over a 9-point, 3-fold dilution series with 5,000 nM typically being the highest dose. Cell culture and treatment were carried out in a humidified 37° C., 5% CO2 incubator. Treated cells were stimulated with 150 ng/ml recombinant human SCF for 4 minutes to induce activation of c-KIT. Cells were lysed in a manner which preserves phosphoproteins, and the lysate was analyzed by ELISA (R&D Systems, Human Phospho-SCF R DuoSet IC DYC3527), in which total c-KIT protein in the lysate is captured and phosphotyrosine residues of c-Kit are detected. A standard curve, made using purified phospho-SCF R protein, was used to quantify phospho-c-KIT in compound-treated wells. A standard 4-parameter logistic model was fit to the inhibitor dose response curves, with the IC50 being defined as the concentration of inhibitor giving 50 percent of control (POC).

Assay [3] has as its target T3, PDGFR beta (Homo sapiens, UniProt P09619).
T3 construct: endogenous in cells; host or cells: HS27 human fibroblast cell line
The assay can be described thus: Phospho PDGFR LICOR Cell Assay (Example B). The following applies: averaged IC50; PDGFR beta phosphorylation in HS27 human fibroblast cell line, PDGF-BB stimulation 10 minutes, normalized to total ERK. Type of assay: cell-based. The method, then: Compounds were screened for inhibition of PDGFR beta phosphorylation in the HS27 human fibroblast cell line. Cells were seeded into a 96 well tissue culture plate, then incubated overnight in a 37° C./5% CO2 incubator. The following day, cells were treated for one hour with test compound dilutions. After stimulation with PDGF-BB ligand for 10 minutes, cells were washed with PBS and fixed in 3.7% formaldehyde in PBS for 10 minutes. This was followed by washing in PBS/0.2% Triton X-100 and permeabilizing in 100% MeOH for 10 minutes. Cells were incubated in blocking buffer for 1 hour. Antibodies to phosphorylated PDGFRβ and total ERK were added to the cells and incubated for 3 hours. After washing with PBS/0.2% Triton X-100, the cells were incubated with fluorescently-labeled secondary antibodies for an additional hour. Cells were then washed with PBS and analyzed for fluorescence at both wavelengths using the Odyssey Infrared Imaging System (LI-COR Biosciences). Phosphorylated PDGFR signal was normalized to total ERK signal. A standard 4-parameter logistic model was fit to the inhibitor dose response curves, with the IC50 being defined as the concentration of inhibitor giving 50 percent of control (POC).

T3 sequence (P09619 33-1106): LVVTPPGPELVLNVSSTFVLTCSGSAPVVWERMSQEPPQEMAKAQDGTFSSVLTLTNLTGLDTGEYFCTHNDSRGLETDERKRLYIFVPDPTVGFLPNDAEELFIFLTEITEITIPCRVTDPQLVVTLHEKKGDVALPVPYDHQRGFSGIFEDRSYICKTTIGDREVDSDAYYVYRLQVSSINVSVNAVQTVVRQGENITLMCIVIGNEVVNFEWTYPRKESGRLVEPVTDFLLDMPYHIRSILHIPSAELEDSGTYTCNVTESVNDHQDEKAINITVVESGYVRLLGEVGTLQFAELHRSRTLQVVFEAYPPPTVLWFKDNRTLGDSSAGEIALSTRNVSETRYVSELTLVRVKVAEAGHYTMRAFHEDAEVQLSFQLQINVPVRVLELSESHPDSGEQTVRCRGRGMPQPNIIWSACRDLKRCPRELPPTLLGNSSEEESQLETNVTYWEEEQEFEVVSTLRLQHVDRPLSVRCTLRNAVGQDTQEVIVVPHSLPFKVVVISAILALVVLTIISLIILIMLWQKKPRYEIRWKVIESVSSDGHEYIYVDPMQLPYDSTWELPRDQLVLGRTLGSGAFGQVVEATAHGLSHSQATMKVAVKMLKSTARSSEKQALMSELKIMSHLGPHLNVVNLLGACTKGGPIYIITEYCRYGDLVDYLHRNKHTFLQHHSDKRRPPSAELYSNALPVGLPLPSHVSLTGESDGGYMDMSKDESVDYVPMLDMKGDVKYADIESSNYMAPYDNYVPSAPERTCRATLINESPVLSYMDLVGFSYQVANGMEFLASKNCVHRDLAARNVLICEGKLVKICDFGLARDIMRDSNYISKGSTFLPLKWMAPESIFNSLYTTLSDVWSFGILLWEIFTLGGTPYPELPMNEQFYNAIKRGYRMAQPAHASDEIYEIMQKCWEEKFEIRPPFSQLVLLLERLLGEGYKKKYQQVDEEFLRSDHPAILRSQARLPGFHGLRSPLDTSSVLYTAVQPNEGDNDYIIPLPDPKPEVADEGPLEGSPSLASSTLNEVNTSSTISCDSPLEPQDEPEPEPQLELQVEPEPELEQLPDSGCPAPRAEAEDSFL

`Cc1nn(Cc2csc(C(C)C)n2)c2cccc(NC(=O)c3cnc4cc(OCCN5CCN(C(C)C)CC5)ccn34)c12` [Example 15, 7-(2-(4-isopropylpiperazin-1-yl)ethoxy)-N-(1-((2-isopropylthiazol-4-yl)methyl)-3-methyl-1H-indazol-4-yl)imidazo[1,2-a]pyridine-3-carboxamide]: the values for the 50% inhibitory concentration (IC50) in assay [1], in assay [2] and in assay [3] were 12 nM, 60.6 nM and 46.2 nM, respectively.

Consider `Cc1cccc(Cn2nc(C)c3c(NC(=O)c4cnc5cc(CCN(C)C)ccn45)cccc32)n1` [Example 72, 7-(2-(dimethylamino)ethyl)-N-(3-methyl-1-((6-methylpyridin-2-yl)methyl)-1H-indazol-4-yl)imidazo[1,2-a]pyridine-3-carboxamide], for which the IC50 in assay [1] came to 24.2 nM; in assay [2] it was 7010 nM; in assay [3], 3160 nM.

Regarding `CNC(=O)c1cccc(Cn2ncc3c(NC(=O)c4cnc5cc(OCCOC)ccn45)cccc32)c1` [Example 95, 7-(2-Methoxyethoxy)-N-(1-(3-(methylcarbamoyl)benzyl)-1H-indazol-4-yl)imidazo[1,2-a]pyridine-3-carboxamide], the half-inhibitory concentration (IC50) in assay [1] turned out to be 31.4 nM; in assay [2], 78.2 nM; in assay [3], 74.3 nM.

As to `Cc1cccc(Cn2nc(C)c3c(NC(=O)c4cnc5cc(-c6cnn(C)c6)ccn45)cccc32)n1` [Example 68, N-(3-methyl-1-((6-methylpyridin-2-yl)methyl)-1H-indazol-4-yl)-7-(1-methyl-1H-pyrazol-4-yl)imidazo[1,2-a]pyridine-3-carboxamide], the IC50 in assay [1] turned out to be 5 nM; in assay [2] it was 76.9 nM; in assay [3], 23.2 nM.

In the case of `Cc1nn(Cc2csc(C(C)C)n2)c2cccc(NC(=O)c3cnc4cc(OCCN5CCN(C)[C@@H](C)C5)ccn34)c12` [Example 30, (S)-7-(2-(3,4-dimethylpiperazin-1-yl)ethoxy)-N-(1-((2-isopropylthiazol-4-yl)methyl)-3-methyl-1H-indazol-4-yl)imidazo[1,2-a]pyridine-3-carboxamide], the results for the IC50 in assay [1], in assay [2] and in assay [3] were 17.6 nM, 65.3 nM and 17.4 nM, respectively.

On to `COCCOc1ccn2c(C(=O)Nc3cccc4c3cnn4Cc3ccc(C)nc3)cnc2c1` [Example 124, 7-(2-methoxyethoxy)-N-(1-((6-methylpyridin-3-yl)methyl)-1H-indazol-4-yl)imidazo[1,2-a]pyridine-3-carboxamide], for which the figures for the IC50 in assay [1], in assay [2] and in assay [3] were 8.3 nM, 9.5 nM and 6.9 nM, respectively.

In the case of `COCCOc1ccn2c(C(=O)Nc3cccc4c3cnn4Cc3ccccn3)cnc2c1` [Example 112, 7-(2-methoxyethoxy)-N-(1-(pyridin-2-ylmethyl)-1H-indazol-4-yl)imidazo[1,2-a]pyridine-3-carboxamide], the half-inhibitory concentration (IC50) in assay [1] came to 33.7 nM; in assay [2], 68.9 nM; in assay [3], 16.7 nM.

Regarding `Cc1ccc(Cn2nc(C)c3c(NC(=O)c4cnc5cc(OCCN6CCN(C)CC6)ccn45)cccc32)cn1` [Example 85, N-(3-methyl-1-((6-methylpyridin-3-yl)methyl)-1H-indazol-4-yl)-7-(2-(4-methylpiperazin-1-yl)ethoxy)imidazo[1,2-a]pyridine-3-carboxamide], the IC50 in assay [1] stood at 10.4 nM; in assay [2], 303 nM; in assay [3], 401 nM.

In the case of `Cc1cccc(Cn2nc(C)c3c(NC(=O)c4cnc5cc(OCCN6CCNCC6)ccn45)cccc32)n1` [Example 64, N-(3-methyl-1-((6-methylpyridin-2-yl)methyl)-1H-indazol-4-yl)-7-(2-(piperazin-1-yl)ethoxy)imidazo[1,2-a]pyridine-3-carboxamide], the concentration for half-maximal inhibition (IC50) is 9.7 nM in assay [1], 1010 nM in assay [2] and 94.1 nM in assay [3].

In the case of `Cc1nn(Cc2csc(C(C)C)n2)c2cccc(NC(=O)c3cnc4cc(OCCN5CC6(CN(C)C6)C5)ccn34)c12` [Example 13, N-(1-((2-isopropylthiazol-4-yl)methyl)-3-methyl-1H-indazol-4-yl)-7-(2-(6-methyl-2,6-diazaspiro[3.3]heptan-2-yl)ethoxy)imidazo[1,2-a]pyridine-3-carboxamide], the IC50 in assay [1] is 12.9 nM; in assay [2], 76.3 nM; in assay [3], 11.3 nM.

As for `Cc1cc(Cn2ncc3c(NC(=O)c4cnc5cc(OCCN6CCN(C)CC6)ccn45)cccc32)nn1C(C)C` [Example 139, N-(1-((1-isopropyl-5-methyl-1H-pyrazol-3-yl)methyl)-1H-indazol-4-yl)-7-(2-(4-methylpiperazin-1-yl)ethoxy)imidazo[1,2-a]pyridine-3-carboxamide], the half-maximal inhibitory concentration (IC50) in assay [1] was determined as 10.6 nM; in assay [2] it was 7.9 nM; in assay [3], 1.3 nM.

On to `Cc1ncc(Cn2ncc3c(NC(=O)c4cnc5cc(OCCN6CCN(C)CC6)ccn45)cccc32)s1` [Example 149, 7-(2-(4-methylpiperazin-1-yl)ethoxy)-N-(1-((2-methylthiazol-5-yl)methyl)-1H-indazol-4-yl)imidazo[1,2-a]pyridine-3-carboxamide], for which the IC50 stood at 2.2 nM in assay [1], 4.8 nM in assay [2] and 1 nM in assay [3].

Consider `NC(=O)c1ccc2ncc(C(=O)Nc3cccc4c3cnn4Cc3ccccc3)n2c1` [Example 160, N3-(1-benzyl-1H-indazol-4-yl)imidazo[1,2-a]pyridine-3,6-dicarboxamide], for which the IC50 in assay [1] is 132 nM; in assay [2] it was 868 nM; in assay [3], 714 nM.

For the molecule `COCCOc1ccn2c(C(=O)Nc3cccc4c3cnn4Cc3cccc(Cl)c3)cnc2c1` [Example 141, N-(1-(3-chlorobenzyl)-1H-indazol-4-yl)-7-(2-methoxyethoxy)imidazo[1,2-a]pyridine-3-carboxamide], the IC50 in assay [1] came to 4.4 nM; in assay [2], 3.7 nM; in assay [3], 1.6 nM.

With `COCCOc1ccn2c(C(=O)Nc3cccc4c3cnn4Cc3ccccc3)cnc2c1` [Example 156, N-(1-benzyl-1H-indazol-4-yl)-7-(2-methoxyethoxy)imidazo[1,2-a]pyridine-3-carboxamide], the IC50 in assay [1] was found to be 5.7 nM; in assay [2], 12.5 nM; in assay [3], 5.7 nM.

As to `COCCOc1ccn2c(C(=O)Nc3cccc4c3c(C)nn4Cc3ccccc3)cnc2c1` [Example 80, N-(1-benzyl-3-methyl-1H-indazol-4-yl)-7-(2-methoxyethoxy)imidazo[1,2-a]pyridine-3-carboxamide], the IC50 in assay [1] was determined as 8.2 nM; in assay [2], 5700 nM; in assay [3] it was 174 nM.

As for `Cc1cccc(Cn2nc(C)c3c(NC(=O)c4cnc5cc(OCCN6CCOCC6)ccn45)cccc32)n1` [Example 59, N-(3-methyl-1-((6-methylpyridin-2-yl)methyl)-1H-indazol-4-yl)-7-(2-morpholinoethoxy)imidazo[1,2-a]pyridine-3-carboxamide], the figures for the IC50 in assay [1], in assay [2] and in assay [3] were 19.4 nM, 1490 nM and 19.3 nM, respectively.

As to `COCCOc1ccn2c(C(=O)Nc3cccc4c3cnn4CC3CCCNC3)cnc2c1` (stereo not drawn) [Example 131, 7-(2-methoxyethoxy)-N-(1-(piperidin-3-ylmethyl)-1H-indazol-4-yl)imidazo[1,2-a]pyridine-3-carboxamide hydrochloride], the IC50 in assay [1] was found to be 993 nM; in assay [2], 5000 nM; in assay [3], 682 nM.
